Test results reported in ChEMBL document CHEMBL1201862, “PubChem BioAssay data set” (2004).
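A five-concentration, 48-hour dose response in 96-well plates underlies each endpoint, interpolated linearly between surrounding concentrations. The concentration for 50% growth inhibition is given as GI50.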 The source made the active and inactive calls. Cut-off read from the data, not from the text of the source: active = GI50 up to about 1.1 µM and inactive = higher. Bridge positions count the residues as written; N and C are the ends. Square brackets hold non-standard residues; d marks the D form. Peptide text beside a SMILES is read from it. * marks the point of attachment. Cbz = O=C(OCc1ccccc1)*; Dab = NCC[CH](N)C(=O)O; Bn = c1ccc(C*)cc1

Columns and labels:
Assay in all cases: NCI tumour cell line growth inhibition, 48 h
[1] = test system: A549
[2] = test system: HL-60
[3] = test system: Hs-578T
[4] = test system: MCF7
[5] = test system: MDA-MB-435
[6] = test system: MOLT-4
[7] = test system: NCI-H226
[8] = test system: NCI/ADR-RES
[9] = test system: OVCAR-5
[10] = test system: OVCAR-8
[11] = test system: RXF 393
[12] = test system: SF-539
[13] = test system: SK-MEL-5
[14] = test system: SN12C
[15] = test system: SW-620
[16] = test system: T47D
[17] = test system: U-251
[18] = test system: IGROV-1
[19] = test system: NCI-H460
[20] = test system: A498

Row | SMILES | GI50 [1] | GI50 [2] | GI50 [3] | GI50 [4] | GI50 [5] | GI50 [6] | GI50 [7] | GI50 [8] | GI50 [9] | GI50 [10] | GI50 [11] | GI50 [12] | GI50 [13] | GI50 [14] | GI50 [15] | GI50 [16] | GI50 [17] | GI50 [18] | GI50 [19] | GI50 [20]
1 | CC1(C(=O)O)CCC2(C)CCC3(C)C(=CC(=O)C4C5(C)CCC(O)C(C)(C)C5CCC43C)C2C1 (configuration not stated) | 40.3 µM (inactive) | 24.6 µM (inactive) | 28.6 µM (inactive) | 50.2 µM (inactive) | 35.6 µM (inactive) | 36.2 µM (inactive) | 25.8 µM (inactive) | 46 µM (inactive) | 29.6 µM (inactive) | 43.8 µM (inactive) | 36.1 µM (inactive) | 17.6 µM (inactive) | 24.4 µM (inactive) | 41.8 µM (inactive) | 37.5 µM (inactive) | 30.8 µM (inactive) | 43.1 µM (inactive) |  |  | 
2 | O=c1oc2c/c(=C\c3ccc([N+](=O)[O-])cc3)c(=O)c3cccc1c3-2 | > 100 µM (inactive) | > 100 µM (inactive) | > 100 µM (inactive) | > 100 µM (inactive) | > 100 µM (inactive) | > 100 µM (inactive) |  | > 100 µM (inactive) | > 100 µM (inactive) | 30.8 µM (inactive) |  |  | > 100 µM (inactive) | > 100 µM (inactive) | > 100 µM (inactive) | > 100 µM (inactive) | 28.6 µM (inactive) | > 100 µM (inactive) | > 100 µM (inactive) | 
3 | CCOC(=O)C1=COC(C)(c2ccccc2)CC1=O (configuration not stated) | > 100 µM (inactive) |  | 88.9 µM (inactive) | > 100 µM (inactive) | > 100 µM (inactive) | 49.7 µM (inactive) |  | > 100 µM (inactive) | > 100 µM (inactive) | > 100 µM (inactive) | 63.1 µM (inactive) | > 100 µM (inactive) | > 100 µM (inactive) | > 100 µM (inactive) | > 100 µM (inactive) | > 100 µM (inactive) | > 100 µM (inactive) |  | > 100 µM (inactive) | > 100 µM (inactive)
4 | Cc1c(-c2nc3ccccc3[nH]2)c(=O)n(-c2ccccc2)n1C | > 100 µM (inactive) | > 100 µM (inactive) | > 100 µM (inactive) | > 100 µM (inactive) | > 100 µM (inactive) | > 100 µM (inactive) | > 100 µM (inactive) | > 100 µM (inactive) |  | > 100 µM (inactive) | > 100 µM (inactive) | > 100 µM (inactive) | > 100 µM (inactive) | > 100 µM (inactive) | > 100 µM (inactive) | > 100 µM (inactive) | > 100 µM (inactive) | > 100 µM (inactive) | > 100 µM (inactive) | 
5 | C=CCOCn1ccc(NC(=O)c2ccccc2)nc1=O | > 100 µM (inactive) | > 100 µM (inactive) | > 100 µM (inactive) | > 100 µM (inactive) | > 100 µM (inactive) | > 100 µM (inactive) | > 100 µM (inactive) |  |  | > 100 µM (inactive) |  | > 100 µM (inactive) | > 100 µM (inactive) | > 100 µM (inactive) | > 100 µM (inactive) | > 100 µM (inactive) |  | > 100 µM (inactive) | > 100 µM (inactive) | > 100 µM (inactive)
6 | O=c1c(/C=C/c2c(O)ccc3ccccc23)nnc2sc(-c3cccc(Br)c3)nn12 | 32.1 µM (inactive) | 3.94 µM (inactive) | 35.9 µM (inactive) | 13.6 µM (inactive) | 21.1 µM (inactive) | 3.4 µM (inactive) |  | 22.8 µM (inactive) | 19.5 µM (inactive) | 3.44 µM (inactive) |  | 63.8 µM (inactive) | 17.8 µM (inactive) |  | 25.6 µM (inactive) | 15 µM (inactive) | 25.2 µM (inactive) | 0.773 µM (active) | 25.4 µM (inactive) | 26.7 µM (inactive)
7 | COc1cc(NC(C)=O)ccc1C(=O)N/N=C/c1ccco1 | > 100 µM (inactive) | 46.5 µM (inactive) | > 100 µM (inactive) | 52.2 µM (inactive) | > 100 µM (inactive) | 31.3 µM (inactive) |  | > 100 µM (inactive) | > 100 µM (inactive) | > 100 µM (inactive) | > 100 µM (inactive) | 44.2 µM (inactive) | 44.5 µM (inactive) | > 100 µM (inactive) | > 100 µM (inactive) | > 100 µM (inactive) |  | > 100 µM (inactive) |  | > 100 µM (inactive)
8 | OCCCN(CCc1ccc(Cl)c(Cl)c1)CCN1CCCC1 | 58.2 µM (inactive) | 34.4 µM (inactive) | 38.8 µM (inactive) | 27.4 µM (inactive) | 22.3 µM (inactive) | 39.2 µM (inactive) |  | 81.5 µM (inactive) | 31.4 µM (inactive) | > 100 µM (inactive) | 64.4 µM (inactive) |  |  | 73.3 µM (inactive) | 81.5 µM (inactive) | 33.1 µM (inactive) | 48.1 µM (inactive) | > 100 µM (inactive) | 51.2 µM (inactive) | 17.3 µM (inactive)
9 | O=C1c2ccccc2C(=O)c2c(NCCCN3CCOCC3)ccc(NCCCN3CCOCC3)c21 | 4.18 µM (inactive) | 2.45 µM (inactive) | 5.45 µM (inactive) | 5.9 µM (inactive) |  | 1.09 µM (active) | 6.59 µM (inactive) |  | 9.42 µM (inactive) | 1.9 µM (inactive) | 8.36 µM (inactive) | 1.82 µM (inactive) | 2.51 µM (inactive) | 2.18 µM (inactive) | 3.97 µM (inactive) | 29.3 µM (inactive) | 3.24 µM (inactive) | 4.69 µM (inactive) | 1.54 µM (inactive) | 12 µM (inactive)
10 | Nc1nc(-c2ccccc2)cc(-c2ccc(F)cc2)c1-c1ccc(Cl)cc1 | > 100 µM (inactive) | 21.4 µM (inactive) | 73.3 µM (inactive) | 41.7 µM (inactive) | > 100 µM (inactive) | 5.57 µM (inactive) | > 100 µM (inactive) | > 100 µM (inactive) | > 100 µM (inactive) | > 100 µM (inactive) | > 100 µM (inactive) |  | > 100 µM (inactive) | > 100 µM (inactive) | > 100 µM (inactive) | > 100 µM (inactive) | > 100 µM (inactive) | > 100 µM (inactive) | 31.3 µM (inactive) | 
11 | Cn1cc(NC(=O)Nc2cc(C(=O)Nc3cc(C(=O)Nc4ccc5cc(S(=O)(=O)O)cc(S(=O)(=O)O)c5c4)n(C)c3)n(C)c2)cc1C(=O)Nc1cc(C(=O)Nc2ccc3cc(S(=O)(=O)O)cc(S(=O)(=O)O)c3c2)n(C)c1 | 84.9 µM (inactive) | > 100 µM (inactive) | > 100 µM (inactive) | > 100 µM (inactive) | > 100 µM (inactive) | > 100 µM (inactive) | > 100 µM (inactive) | > 100 µM (inactive) | > 100 µM (inactive) | > 100 µM (inactive) | > 100 µM (inactive) | > 100 µM (inactive) | > 100 µM (inactive) | > 100 µM (inactive) | > 100 µM (inactive) | > 100 µM (inactive) | > 100 µM (inactive) | > 100 µM (inactive) | > 100 µM (inactive) | 
12 | COc1ccc(/N=N/N2CCCC2)cc1 | > 100 µM (inactive) | 30.1 µM (inactive) | 54.5 µM (inactive) | 30.8 µM (inactive) | 70.6 µM (inactive) | 26.9 µM (inactive) | > 100 µM (inactive) |  | 83.9 µM (inactive) |  | 26.1 µM (inactive) | 29.8 µM (inactive) | 30.4 µM (inactive) | 21.7 µM (inactive) | 26.8 µM (inactive) | 18.3 µM (inactive) | > 100 µM (inactive) | 14.9 µM (inactive) | > 100 µM (inactive) | > 100 µM (inactive)
13 | CC(C)CC1NC(=O)C(Cc2ccccc2)NC(=O)C(Cc2ccccc2)NC(=O)C(NC(=O)C(Cc2ccc(OCc3ccccc3)cc2)NC(=O)OCc2ccccc2)CCNC1=O (configuration not stated) (Cbz-Y(Bn)[Dab]FFL; lactam 2-C; configuration not given here) |  | > 100 µM (inactive) | > 100 µM (inactive) | 38.8 µM (inactive) | 30.4 µM (inactive) | 14.6 µM (inactive) | > 100 µM (inactive) | > 100 µM (inactive) | > 100 µM (inactive) | > 100 µM (inactive) | > 100 µM (inactive) | > 100 µM (inactive) | 76.4 µM (inactive) | > 100 µM (inactive) | > 100 µM (inactive) | 20.4 µM (inactive) | 29.4 µM (inactive) | 78.5 µM (inactive) | 35.1 µM (inactive) | 
14 | COc1cc2c(c(O)c1OC)-c1c(cc(OC)c(OC)c1OC)CC(C)C(C)C2 (configuration not stated) [GOMISIN K3] | 43.7 µM (inactive) | 25.5 µM (inactive) | 69.8 µM (inactive) | 33 µM (inactive) | 50 µM (inactive) | 16.6 µM (inactive) | 42.8 µM (inactive) |  | > 100 µM (inactive) | 51.9 µM (inactive) | 30.9 µM (inactive) | 66.1 µM (inactive) | 35.6 µM (inactive) | 47.8 µM (inactive) | 70.3 µM (inactive) | 30.4 µM (inactive) | 49.9 µM (inactive) | 51.1 µM (inactive) | 31.2 µM (inactive) | 35.1 µM (inactive)
15 | CCCCCCCCCCCCCCN [TETRADECYLAMINE] |  | > 100 µM (inactive) | > 100 µM (inactive) | > 100 µM (inactive) | > 100 µM (inactive) | > 100 µM (inactive) |  | > 100 µM (inactive) | > 100 µM (inactive) | > 100 µM (inactive) | > 100 µM (inactive) |  | > 100 µM (inactive) | > 100 µM (inactive) | > 100 µM (inactive) | > 100 µM (inactive) | > 100 µM (inactive) | > 100 µM (inactive) | > 100 µM (inactive) | > 100 µM (inactive)
